In PubChem BioAssay (NCI):
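Interpolation was linear, between the two tested concentrations surrounding the appropriate level; five concentrations were tested over 48 hours in 96-well plates. TGI: concentration producing complete growth inhibition.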

How the values were obtained:
Experiment in all cases: DTP human tumour cell line panel, 48 h
DMS 273 small cell lung = system: DMS 273 small cell lung
NCI-H460 lung = system: NCI-H460 lung
SNB-78 CNS = system: SNB-78 CNS
DLD-1 colon = system: DLD-1 colon
SK-MEL-2 melanoma = system: SK-MEL-2 melanoma
SNB-75 CNS = system: SNB-75 CNS
UACC-257 melanoma = system: UACC-257 melanoma
NCI-H226 lung = system: NCI-H226 lung
M19-MEL melanoma = system: M19-MEL melanoma
NCI-H23 lung = system: NCI-H23 lung
HL-60(TB) leukemia = system: HL-60(TB) leukemia
A549 NSCLC = system: A549 NSCLC
UACC-62 melanoma = system: UACC-62 melanoma
KM12 colon = system: KM12 colon
CCRF-CEM leukemia = system: CCRF-CEM leukemia
RXF 393 renal = system: RXF 393 renal
SK-MEL-5 melanoma = system: SK-MEL-5 melanoma
DMS 114 small cell lung = system: DMS 114 small cell lung
LXFL 529 NSCLC = system: LXFL 529 NSCLC
MOLT-4 leukemia = system: MOLT-4 leukemia
SW-620 colon = system: SW-620 colon
SN12C renal = system: SN12C renal
OVCAR-8 ovarian = system: OVCAR-8 ovarian
SF-268 CNS = system: SF-268 CNS
MALME-3M melanoma = system: MALME-3M melanoma
K-562 leukemia = system: K-562 leukemia
HCT-116 colon = system: HCT-116 colon
LOX IMVI melanoma = system: LOX IMVI melanoma
ACHN renal = system: ACHN renal
OVCAR-3 ovarian = system: OVCAR-3 ovarian
SK-OV-3 ovarian = system: SK-OV-3 ovarian
SF-295 CNS = system: SF-295 CNS
NCI-H522 lung = system: NCI-H522 lung
OVCAR-4 ovarian = system: OVCAR-4 ovarian
SK-MEL-28 melanoma = system: SK-MEL-28 melanoma
HCT-15 colon = system: HCT-15 colon
U251 CNS = system: U251 CNS
TK-10 renal = system: TK-10 renal
HT29 colon = system: HT29 colon
SF-539 CNS = system: SF-539 CNS
UO-31 renal = system: UO-31 renal
XF 498 CNS = system: XF 498 CNS
COLO 205 colon = system: COLO 205 colon
M14 melanoma = system: M14 melanoma
KM20L2 colon = system: KM20L2 colon
EKVX NSCLC = system: EKVX NSCLC
786-0 renal = system: 786-0 renal
SR leukemia = system: SR leukemia
IGROV1 ovarian = system: IGROV1 ovarian
HOP-18 NSCLC = system: HOP-18 NSCLC
HCC-2998 colon = system: HCC-2998 colon
OVCAR-5 ovarian = system: OVCAR-5 ovarian
HOP-62 NSCLC = system: HOP-62 NSCLC
A498 renal = system: A498 renal
SNB-19 CNS = system: SNB-19 CNS
RPMI-8226 leukemia = system: RPMI-8226 leukemia

Measured: TGI

NCc1ccccc1C1CSCSC1
> 100 µM: DMS 273 small cell lung | NCI-H460 lung | SNB-78 CNS | DLD-1 colon | SK-MEL-2 melanoma | SNB-75 CNS | UACC-257 melanoma | NCI-H226 lung | M19-MEL melanoma | NCI-H23 lung | HL-60(TB) leukemia | A549 NSCLC | UACC-62 melanoma | KM12 colon | CCRF-CEM leukemia | RXF 393 renal | SK-MEL-5 melanoma | DMS 114 small cell lung | LXFL 529 NSCLC | MOLT-4 leukemia | SW-620 colon | SN12C renal | OVCAR-8 ovarian | SF-268 CNS | MALME-3M melanoma | K-562 leukemia | HCT-116 colon | LOX IMVI melanoma | ACHN renal | OVCAR-3 ovarian | SK-OV-3 ovarian | SF-295 CNS | NCI-H522 lung | OVCAR-4 ovarian | SK-MEL-28 melanoma | HCT-15 colon | U251 CNS | TK-10 renal | HT29 colon | SF-539 CNS | UO-31 renal | XF 498 CNS

O=C1CC[C@@H](S(=O)(=O)c2ccccc2)[C@@H](/C=C/c2ccccc2)O1
> 100 µM: NCI-H460 lung | COLO 205 colon | M14 melanoma | KM20L2 colon | EKVX NSCLC | SNB-75 CNS | UACC-257 melanoma | NCI-H226 lung | M19-MEL melanoma | NCI-H23 lung | HL-60(TB) leukemia | A549 NSCLC | UACC-62 melanoma | 786-0 renal | SR leukemia | KM12 colon | CCRF-CEM leukemia | RXF 393 renal | SK-MEL-5 melanoma | IGROV1 ovarian | HOP-18 NSCLC | DMS 114 small cell lung | LXFL 529 NSCLC | MOLT-4 leukemia | SW-620 colon | SN12C renal | HCC-2998 colon | OVCAR-8 ovarian | MALME-3M melanoma | OVCAR-5 ovarian | HOP-62 NSCLC | K-562 leukemia | HCT-116 colon | LOX IMVI melanoma | ACHN renal | A498 renal | OVCAR-3 ovarian | SK-OV-3 ovarian | SF-295 CNS | NCI-H522 lung | OVCAR-4 ovarian | SNB-19 CNS | SK-MEL-28 melanoma | HCT-15 colon | U251 CNS | RPMI-8226 leukemia | TK-10 renal | HT29 colon | SF-539 CNS | UO-31 renal
